Experimental data published in ChEMBL document CHEMBL3734723, “Synthesis and anticancer activity of 6-heteroarylcoumarins” (2015).

Key:
Format in all cases: functional
NCI-H522 = experiment: Cytotoxicity against human NCI-H522 cells assessed as cell growth at 10 uM incubated for 48 hrs by sulforhodamine B assay; conditions: NCI-H522, 48 h, read-out: Activity
[1] = Cytotoxicity against human OVCAR8 cells assessed as cell growth at 10 uM incubated for 48 hrs by sulforhodamine B assay; conditions: OVCAR-8, 48 h, read-out: Activity
[2] = Cytotoxicity against human UO31 cells assessed as cell growth at 10 uM incubated for 48 hrs by sulforhodamine B assay; conditions: UO-31, 48 h, read-out: Activity
[3] = Cytotoxicity against human RPMI8226 cells assessed as cell growth at 10 uM incubated for 48 hrs by sulforhodamine B assay; conditions: RPMI-8226, 48 h, read-out: Activity
SK-MEL-5 = experiment: Cytotoxicity against human SK-MEL-5 cells assessed as cell growth at 10 uM incubated for 48 hrs by sulforhodamine B assay; conditions: SK-MEL-5, 48 h, read-out: Activity
[4] = Cytotoxicity against human SF295 cells assessed as cell growth at 10 uM incubated for 48 hrs by sulforhodamine B assay; conditions: SF-295, 48 h, read-out: Activity
[5] = Cytotoxicity against human UACC62 cells assessed as cell growth at 10 uM incubated for 48 hrs by sulforhodamine B assay; conditions: UACC-62, 48 h, read-out: Activity
[6] = Cytotoxicity against human […] cells assessed as cell growth at 10 uM incubated for 48 hrs by sulforhodamine B assay; conditions: read-out: Activity
K562 = experiment: Cytotoxicity against human K562 cells assessed as cell growth at 10 uM incubated for 48 hrs by sulforhodamine B assay; conditions: K562, 48 h, read-out: Activity
MDA-MB-468 = experiment: Cytotoxicity against human MDA-MB-468 cells assessed as cell growth at 10 uM incubated for 48 hrs by sulforhodamine B assay; conditions: MDA-MB-468, 48 h, read-out: Activity
[7] = Cytotoxicity against human PC3 cells assessed as cell growth at 10 uM incubated for 48 hrs by sulforhodamine B assay; conditions: PC-3, 48 h, read-out: Activity
SR = experiment: Cytotoxicity against human SR cells assessed as cell growth at 10 uM incubated for 48 hrs by sulforhodamine B assay; conditions: read-out: Activity
[8] = Cytotoxicity against human HL-60(TB) cells assessed as cell growth at 10 uM incubated for 48 hrs by sulforhodamine B assay; conditions: HL-60, 48 h, read-out: Activity
CCRF-CEM = experiment: Cytotoxicity against human CCRF-CEM cells assessed as cell growth at 10 uM incubated for 48 hrs by sulforhodamine B assay; conditions: read-out: Activity
[9] = Cytotoxicity against human MOLT4 cells assessed as cell growth at 10 uM incubated for 48 hrs by sulforhodamine B assay; conditions: MOLT-4, 48 h, read-out: Activity
[10] = Cytotoxicity against human HOP92 cells assessed as cell growth at 10 uM incubated for 48 hrs by sulforhodamine B assay; conditions: HOP-92, 48 h, read-out: Activity
T47D = experiment: Cytotoxicity against human T47D cells assessed as cell growth at 10 uM incubated for 48 hrs by sulforhodamine B assay; conditions: read-out: Activity
[11] = Cytotoxicity against human HCT15 cells assessed as cell growth at 10 uM incubated for 48 hrs by sulforhodamine B assay; conditions: HCT-15, 48 h, read-out: Activity
786-0 = experiment: Cytotoxicity against human 786-0 cells assessed as cell growth at 10 uM incubated for 48 hrs by sulforhodamine B assay; conditions: 786-0, 48 h, read-out: Activity
A549 = experiment: Cytotoxicity against human A549 cells assessed as cell growth at 10 uM incubated for 48 hrs by sulforhodamine B assay; conditions: A549, 48 h, read-out: Activity
MCF7 = experiment: Cytotoxicity against human MCF7 cells assessed as cell growth at 10 uM incubated for 48 hrs by sulforhodamine B assay; conditions: MCF7, 48 h, read-out: Activity
EKVX = experiment: Cytotoxicity against human EKVX cells assessed as cell growth at 10 uM incubated for 48 hrs by sulforhodamine B assay; conditions: read-out: Activity
[12] = Cytotoxicity against human LOXIMVI cells assessed as cell growth at 10 uM incubated for 48 hrs by sulforhodamine B assay; conditions: LOX IMVI, read-out: Activity
NCI-H460 = experiment: Cytotoxicity against human NCI-H460 cells assessed as cell growth at 10 uM incubated for 48 hrs by sulforhodamine B assay; conditions: NCI-H460, 48 h, read-out: Activity
[13] = Cytotoxicity against human OVCAR3 cells assessed as cell growth at 10 uM incubated for 48 hrs by sulforhodamine B assay; conditions: OVCAR-3, 48 h, read-out: Activity
[14] = Cytotoxicity against human HCT116 cells assessed as cell growth at 10 uM incubated for 48 hrs by sulforhodamine B assay; conditions: HCT-116, 48 h, read-out: Activity
[15] = Cytotoxicity against human HCC2998 cells assessed as cell growth at 10 uM incubated for 48 hrs by sulforhodamine B assay; conditions: HCC 2998, 48 h, read-out: Activity
ACHN = experiment: Cytotoxicity against human ACHN cells assessed as cell growth at 10 uM incubated for 48 hrs by sulforhodamine B assay; conditions: read-out: Activity
KM12 = experiment: Cytotoxicity against human KM12 cells assessed as cell growth at 10 uM incubated for 48 hrs by sulforhodamine B assay; conditions: KM12, 48 h, read-out: Activity
[16] = Cytotoxicity against human NCI-ADR-RES cells assessed as cell growth at 10 uM incubated for 48 hrs by sulforhodamine B assay; conditions: read-out: Activity
NCI-H23 = experiment: Cytotoxicity against human NCI-H23 cells assessed as cell growth at 10 uM incubated for 48 hrs by sulforhodamine B assay; conditions: NCI-H23, 48 h, read-out: Activity
[17] = Cytotoxicity against human OVCAR4 cells assessed as cell growth at 10 uM incubated for 48 hrs by sulforhodamine B assay; conditions: OVCAR-4, 48 h, read-out: Activity
MDA-MB-435 = experiment: Cytotoxicity against human MDA-MB-435 cells assessed as cell growth at 10 uM incubated for 48 hrs by sulforhodamine B assay; conditions: MDA-MB-435, 48 h, read-out: Activity

Cc1c(O)c(-c2ccnc(S)n2)cc2c3c(c(=O)oc12)CCCC3
growth at 10 µM (NCI-H522): 68.8%
growth at 10 µM [1]: 64.5%
growth at 10 µM [2]: 60.8%

CCCc1cc(=O)oc2c(C)c(O)c(-c3ccc4c(=O)n(-c5ccccc5)nc-4[nH]3)cc12
growth at 10 µM [3]: 65.8%
growth at 10 µM (SK-MEL-5): 67.1%
growth at 10 µM [4]: 69.1%
growth at 10 µM [5]: 60.6%

CCCc1cc(=O)oc2c(C)c(O)c(-c3ccc(C#N)c(=O)[nH]3)cc12
growth at 10 µM [6]: 90%

CCCCc1cc(=O)oc2c(C)c(O)c(-c3ccnc4nnnn34)cc12
growth at 10 µM [2]: 89.4%

Cc1cc(=O)oc2c(C)c(O)c(-c3cc4ccccc4[nH]3)cc12
growth at 10 µM [3]: 43.8%
growth at 10 µM (SK-MEL-5): 48.5%
growth at 10 µM (NCI-H522): 58.2%
growth at 10 µM [5]: 48.8%
growth at 10 µM (K562): 59.3%
growth at 10 µM (MDA-MB-468): 64.3%
growth at 10 µM [7]: 66.5%
growth at 10 µM [2]: 51.8%
growth at 10 µM (SR): 65.2%

Cc1cc(=O)oc2c(C)c(O)c(-c3cc[nH]n3)cc12
growth at 10 µM [3]: 64.3%
growth at 10 µM [8]: -10.9%
growth at 10 µM (CCRF-CEM): -68.5%

Cc1cc(=O)oc2c(C)c(O)c(-c3ccnc4nc5ccccc5n34)cc12
growth at 10 µM (CCRF-CEM): -81.9%

Cc1c(O)c(-c2cc[nH]n2)cc2c3c(c(=O)oc12)CCC3
growth at 10 µM [9]: -36%
growth at 10 µM [8]: -20.4%
growth at 10 µM (CCRF-CEM): -69.3%
growth at 10 µM (SR): 16.5%
growth at 10 µM [10]: 65.7%

Cc1c(O)c(-c2cc3ccccc3[nH]2)cc2c3c(c(=O)oc12)CCC3
growth at 10 µM (T47D): 69.8%
growth at 10 µM [3]: 51.8%
growth at 10 µM (NCI-H522): 61.6%
growth at 10 µM [5]: 59.1%
growth at 10 µM [7]: 67%

Cc1c(O)c(-c2cc3ccccc3[nH]2)cc2c3c(c(=O)oc12)CCCC3
growth at 10 µM [11]: 67.3%
growth at 10 µM [3]: 38.7%
growth at 10 µM (786-0): 69.9%
growth at 10 µM (SK-MEL-5): 52.2%
growth at 10 µM (A549): 58.5%
growth at 10 µM [9]: 62.2%
growth at 10 µM [4]: 65.7%
growth at 10 µM (MCF7): 67.3%
growth at 10 µM (NCI-H522): 39.6%
growth at 10 µM (EKVX): 60.7%
growth at 10 µM [5]: 48.2%
growth at 10 µM [12]: 68.2%
growth at 10 µM (NCI-H460): 47.8%
growth at 10 µM [13]: 64.6%
growth at 10 µM [14]: 51.7%
growth at 10 µM [15]: 53.7%
growth at 10 µM [6]: 68.8%
growth at 10 µM (ACHN): 66.9%
growth at 10 µM (K562): 44.3%
growth at 10 µM (MDA-MB-468): 41.6%
growth at 10 µM [7]: 52.8%
growth at 10 µM (KM12): 64.8%
growth at 10 µM [2]: 44%
growth at 10 µM [16]: 49.2%
growth at 10 µM (NCI-H23): 31.5%
growth at 10 µM (SR): 60.2%
growth at 10 µM [17]: 61.6%
growth at 10 µM (MDA-MB-435): 65.3%
growth at 10 µM [10]: 36.7%

Cc1c(O)c(-c2ccnc(N)n2)cc2c3c(c(=O)oc12)CCC3
growth at 10 µM [3]: 55.6%
growth at 10 µM [8]: -34.4%
growth at 10 µM (CCRF-CEM): -73.3%
growth at 10 µM (SR): 4.79%
growth at 10 µM [10]: -5.18%

CCCCc1cc(=O)oc2c(C)c(O)c(-c3ccnc(NC#N)n3)cc12
growth at 10 µM (CCRF-CEM): -58.3%
